Where a chain is given by its changes, count along the chain named. Starred links: 1 amine or outer side, 2 acyl side, 3 side chain; linkers in the order of their positions; H or OH if unused. Positions of bridges follow the written chain, without caps; N, C: chain ends. Non-standard residues stand in square brackets, D forms with d. Residues, ends and D or L forms follow the SMILES beside them. Adda = CO[C@@H](Cc1ccccc1)[C@@H](C)/C=C(C)/C=C/[C@H](N[*:1])[C@H](C)C(=O)[*:2]; dAsp(3S-Me) = C[C@H](C(=O)[*:3])[C@@H](N[*:1])C(=O)[*:2]; d(γGlu) = O=C(O)[C@@H](CCC(=O)[*:2])N[*:1]; NMeDha = C=C(NC)C(=O)O
How the values were obtained:
[1] = target: T1, Serine/threonine-protein phosphatase 5 (Homo sapiens) (UniProt P53041); assay: Activation of PPP5C (unknown origin) TPR domain assessed as fold change; settings: filed as activator
T1 sequence (whole entry): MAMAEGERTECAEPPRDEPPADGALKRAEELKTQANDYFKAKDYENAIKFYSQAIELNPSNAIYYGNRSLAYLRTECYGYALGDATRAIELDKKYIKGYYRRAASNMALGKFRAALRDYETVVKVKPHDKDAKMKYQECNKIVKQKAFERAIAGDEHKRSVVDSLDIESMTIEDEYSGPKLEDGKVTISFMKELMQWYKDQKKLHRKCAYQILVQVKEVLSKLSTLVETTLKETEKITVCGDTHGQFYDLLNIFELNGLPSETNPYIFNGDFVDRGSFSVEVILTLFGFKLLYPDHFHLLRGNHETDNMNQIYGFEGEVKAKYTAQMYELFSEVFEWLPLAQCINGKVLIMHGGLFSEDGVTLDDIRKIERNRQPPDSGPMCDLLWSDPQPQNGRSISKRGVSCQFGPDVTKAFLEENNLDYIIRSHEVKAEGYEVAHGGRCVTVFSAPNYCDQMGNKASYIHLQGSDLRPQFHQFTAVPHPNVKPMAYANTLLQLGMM

[2] = target: T1, Serine/threonine-protein phosphatase 5 (Homo sapiens); assay: Activation of Histidine-tagged human PPP5C TPR domain assessed as fold change at 10^5 nM; settings: filed as activator, dose 1.0 10^5nM
[3] = target: T2, Serine/threonine-protein phosphatase with EF-hands 1 (Homo sapiens, UniProt O14829); assay: Inhibition of PP7 (unknown origin) phosphatase domain
T2 sequence (O14829 whole entry): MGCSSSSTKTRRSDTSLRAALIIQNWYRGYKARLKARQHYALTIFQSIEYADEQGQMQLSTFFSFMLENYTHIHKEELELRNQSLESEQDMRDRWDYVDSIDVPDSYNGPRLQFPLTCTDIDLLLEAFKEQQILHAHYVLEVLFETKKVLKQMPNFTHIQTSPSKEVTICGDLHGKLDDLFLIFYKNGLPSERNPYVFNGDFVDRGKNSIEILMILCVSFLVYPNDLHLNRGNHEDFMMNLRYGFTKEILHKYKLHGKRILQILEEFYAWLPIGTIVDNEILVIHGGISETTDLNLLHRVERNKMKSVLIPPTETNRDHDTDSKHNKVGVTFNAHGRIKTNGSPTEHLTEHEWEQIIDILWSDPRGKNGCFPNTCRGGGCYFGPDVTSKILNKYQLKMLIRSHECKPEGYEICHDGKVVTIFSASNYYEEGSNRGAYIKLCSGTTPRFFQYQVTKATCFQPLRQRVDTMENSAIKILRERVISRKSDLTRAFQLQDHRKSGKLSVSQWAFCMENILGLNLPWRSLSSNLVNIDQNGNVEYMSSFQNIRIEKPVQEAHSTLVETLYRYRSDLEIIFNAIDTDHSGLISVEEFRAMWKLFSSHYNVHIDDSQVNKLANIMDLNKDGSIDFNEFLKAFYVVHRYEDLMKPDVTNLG

[4] = Inhibition of PP3 (unknown origin) phosphatase domain; set-up: species or system Homo sapiens
[5] = Inhibition of PP6 (unknown origin) phosphatase domain; set-up: species or system Homo sapiens
[6] = target: T3, Serine/threonine-protein phosphatase 4 catalytic subunit (Homo sapiens, UniProt P60510); assay: Inhibition of PP4 (unknown origin) phosphatase domain
T3 sequence (P60510 whole entry): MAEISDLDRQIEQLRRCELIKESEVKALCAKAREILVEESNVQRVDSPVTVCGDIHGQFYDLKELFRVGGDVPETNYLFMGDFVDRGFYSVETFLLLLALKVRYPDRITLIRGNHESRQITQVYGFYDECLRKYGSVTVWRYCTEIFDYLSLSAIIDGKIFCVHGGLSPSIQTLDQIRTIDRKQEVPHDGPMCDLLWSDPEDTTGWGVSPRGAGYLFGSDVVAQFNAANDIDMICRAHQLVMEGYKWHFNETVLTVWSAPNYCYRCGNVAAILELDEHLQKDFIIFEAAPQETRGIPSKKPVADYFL

[7] = target: T4, Serine/threonine-protein phosphatase 5 (Homo sapiens, UniProt P53041); assay: Inhibition of PPP5C (unknown origin) phosphatase domain
T4 sequence (P53041 whole entry): T1 sequence (whole entry)

[8] = Inhibition of PP1 (unknown origin) phosphatase domain; set-up: species or system Homo sapiens
[9] = Inhibition of PP2A (unknown origin) phosphatase domain; set-up: species or system Homo sapiens
[10] = target: T4, Serine/threonine-protein phosphatase 5; assay: Activation of PPP5C (unknown origin) TPR domain
[11] = Inhibition of PP4 (unknown origin) phosphatase domain using phosphohistone as substrate; set-up: species or system Homo sapiens
[12] = Inhibition of PP2A (unknown origin) phosphatase domain using phosphohistone as substrate; set-up: species or system Homo sapiens
[13] = target: T5, Serine/threonine-protein phosphatase 5 (Rattus norvegicus) (UniProt P53042); assay: Activation of rat PPP5C (428 to 430 residues) phosphatase domain expressed in Escherichia coli BL21-codonplus (DE3)-RIL cells using para-nitrophenyl phosphate as substrate assessed as fold change in maximum efficacy at 10^5 nM; settings: filed as activator, dose 1.0 10^5nM
T5 sequence (whole entry): T1 sequence (whole entry) with D22E, A24T, H128N, N140S, K158R, S189T, E193D, S221C, I397V, N419Q

[14] = target: T5, Serine/threonine-protein phosphatase 5 (Rattus norvegicus); assay: Activation of rat PPP5C (428 to 430 residues) phosphatase domain expressed in Escherichia coli BL21-codonplus (DE3)-RIL cells using para-nitrophenyl phosphate as substrate assessed as fold increase at 10^5 nM; settings: filed as activator, dose 1.0 10^5nM
[15] = target: T6, Serine/threonine-protein phosphatase 5 (Rattus norvegicus, UniProt P53042); assay: Binding affinity to rat PPP5C (428 to 430 residues) phosphatase domain expressed in Escherichia coli BL21-codonplus (DE3)-RIL cells using para-nitrophenyl phosphate as substrate assessed as dissociation constant at 10^5 nM
T6 sequence (P53042 whole entry): T1 sequence (whole entry) with D22E, A24T, H128N, N140S, K158R, S189T, E193D, S221C, I397V, N419Q

[16] = Inhibition of bovine blood PP2A phosphatase domain expressed in Escherichia coli using DiFMUP as substrate; type: tissue-based, Bos taurus
[17] = target: T4, Serine/threonine-protein phosphatase 5; assay: Inhibition of MBP fused recombinant human PPP5C phosphatase domain expressed in Escherichia coli using DiFMUP as substrate
[18] = target: T1, Serine/threonine-protein phosphatase 5 (Homo sapiens); assay: Inhibition of N-terminally 6His-tagged full-length human PPP5C (1 to 499 residues) TPR domain expressed in Escherichia coli Rosetta gami2 (de3) pLysS cells using pNPP as substrate at 10^6 nM preincubated for 10 mins followed by substrate addition and measured for 60 mins relative to control; settings: dose 1.0 10^6nM, time 70.0 min

Molecule CCCCC/C=C\C/C=C\C/C=C\C/C=C\CCCC(=O)O has a fold change (FC) [1] of 1.5.

Work on Cc1ccc(C(=O)Nc2ccc(S(=O)(=O)O)c3cc(S(=O)(=O)O)cc(S(=O)(=O)O)c23)cc1NC(=O)c1cccc(NC(=O)Nc2cccc(C(=O)Nc3cc(C(=O)Nc4ccc(S(=O)(=O)O)c5cc(S(=O)(=O)O)cc(S(=O)(=O)O)c45)ccc3C)c2)c1 yielded a fold change (FC) [2] of 4.

In the case of C[C@@](O)(/C=C/[C@H]1CC=CC(=O)O1)[C@@H](C[C@@H](O)\C=C/C=C\C=C\CO)OP(=O)(O)O [FOSTRIECIN], the IC50 [3] is reported as > 1000 nM, the IC50 [4] is reported as > 100000 nM and the IC50 [5] is reported as 10 nM. The IC50 [6] was 3 nM, the IC50 [7] was > 1000 nM and the IC50 [8] was > 100000 nM. For the same molecule, the IC50 [9] was 1.5 nM.

Work on CC(C)(COP(=O)(O)OP(=O)(O)OC[C@H]1O[C@@H](n2cnc3c(N)ncnc32)[C@H](O)[C@@H]1OP(=O)(O)O)[C@@H](O)C(=O)NCCC(=O)NCCS [COENZYME_A] yielded an EC50 [10] of 1000 nM.

O=C1OC(=O)C2C3CCC(O3)C12 (stereo not given) [DEMETHYL-CANTHARIDIN] showed an IC50 [7] of 1000 nM.

Work on CCCCO[C@H]1C[C@@H]2O[C@H]1[C@@H](C(=O)O)[C@H]2C(=O)O yielded an IC50 [7] of 700 nM.

With C[C@@]12C(=O)OC(=O)[C@]1(C)[C@H]1CC[C@@H]2O1 [CANTHARIDIN] the IC50 [4] was > 500000 nM, the IC50 [5] was 8000 nM and the IC50 [11] was 50 nM. The IC50 [8] was 1700 nM and the IC50 [9] was 160 nM.

In the case of C[C@H]1C[C@@H]2O[C@H]1[C@@H](C(=O)O)[C@H]2C(=O)O, the IC50 [7] is reported as 1000 nM.

C=C1C(=O)N[C@H](C)C(=O)N[C@@H](CC(C)C)C(=O)N[C@@H](C(=O)O)[C@H](C)C(=O)N[C@@H](CCCNC(=N)N)C(=O)N[C@@H](/C=C/C(C)=C/[C@H](C)[C@H](Cc2ccccc2)OC)[C@H](C)C(=O)N[C@@H](C(=O)O)CCC(=O)N1C [MICROCYSTIN-LR] (R[Adda][d(γGlu)][NMeDha][dA]L[dAsp(3S-Me)]-OH; lactam N-7) gave an IC50 [4] of 200 nM, an IC50 [12] of 0.04 nM and an IC50 [11] of 0.15 nM. The IC50 [8] was 1.7 nM.

COc1ccc(-c2nc(Cc3ccc(Cl)cc3)no2)cc1OC showed a fold change (FC) [13] of 3.9, a fold change (FC) [14] of 3.2 and a Kd [15] of 7800 nM.

With CN1CCN(C(=O)[C@H]2[C@@H](C(=O)O)[C@@H]3CC[C@H]2O3)CC1 the IC50 [16] was 400 nM, the IC50 [8] was 2.4 nM and the IC50 [17] was 1800 nM.

For O=C(O)CCCCCCCCCCCC[C@H]1C=CCC1, the EC50 [10] was 134000 nM.

With Nc1ccc(-c2nc3ccc(-c4nc5ccc(N)cc5[nH]4)cc3[nH]2)cc1 the inhibition [18] was > 40%.

Reference: ChEMBL document CHEMBL5325417, “Dual function of protein phosphatase 5 (PPP5C): An emerging therapeutic target for drug discovery” (Eur J Med Chem, 2023)
